Laboratory results: patent publication US20230391748A1, “BICYCLIC INHIBITORS OF IRAK” (priority 2022, published 2023)
Where two headings read alike, the source gives them in different places.

Legend:
IRAK4 = IRAK4 (Homo sapiens (Human), UniProt Q9NWZ3); experiment: IRAK4 ADP-Glo Assay; format: biochemical; conditions: MBP substrate
Procedure: The ADP-Glo™ reagents were thawed at ambient temperature. The Kinase Detection Reagent was prepared by mixing kinase detection buffer with the lyophilized kinase detection substrate, and set aside.
A stock volume of 5× Reaction Kinase Buffer was made with a final concentration of 100 mM MgCl2, 200 mM Tris-HCl, and 0.5 mg/ml of BSA, in distilled H2O with a final pH7.4. A 2× working stock volume of Reaction Kinase Buffer was made containing a final concentration of 100 μM DTT.
The components of IRAK4 Enzyme were thawed on ice. Diluted IRAK4 in 1× Kinase Reaction Buffer (diluted from 2× buffer) was prepared at 5.0 ng/μl.
Then diluted 1:5 in 2× Reaction Buffer in a 96 well plate. 1.0 μl was transferred to a 384 well plate in duplicate. […] 1 μl of 1 mg/ml stock solution of MBP substrate was added NOTE: MBP can be combined with ATP mix with equal volume and then added at 2 μl/well. Final reaction volume was 5 μl.
The plate was centrifuged and the reaction mixture was incubated at room temperature for 60 minutes or at 30° C. for 30 minutes.
The reaction was terminated and the remaining ATP was depleted by adding 5 μl of ADP-Glo™ Reagent. The 384-well plate was centrifuged and then the reaction mixture was incubated for another 40 minutes at ambient temperature.
10 μl of the Kinase Detection Reagent was added. The plate was centrifuged and then the reaction mixture was incubated for another 30 minutes at ambient temperature.
The 384-well reaction plate was read using the WALLAC plate reader (Luminescence 0.1s).

IL23p19 in THP-1 Cells = experiment: LPS Induced IL23p19 in THP-1 Cells (with IFNγ Primed) Assay; format: cell-based; conditions: Homo sapiens
Procedure: LPS Induced IL23p19 in THP-1 Cells (with IFNγ Primed) Assay
On day 1, 50K/well THP-1 cells were seeded and primed with IFNγ (50 ng/mL) in 384-well plates for about 18 hours in RPMI media with 10% FBS. […] 50 μL/well 2× compound was added to 50 μL/well THP-1 cells (with IFNγ primed) in duplicate in 384 well tissue culture plates. […] Day 3, after stimulation for 18 hours at 37° C., 5% CO2, the assay plate was centrifuged and 70 μL/well supernatant was harvested. IL-23p19 protein in 70 µL/well of supernatant was measured by sandwich ELISA, and 25 μl/well Cell Titer Glo reagent was added to the remaining cells to measure compound toxicity.
Maxisorp immuno ELISA plates were pre-coated with 25 μL/well of anti-IL-23p19 capture antibody (2.5 ug/mL) in PBS overnight at room temperature. […] 25 μL/well of biotin labeled anti-IL-12(p40/p70) detection antibody (100 ng/mL) in PBS with 1% BSA was added and the plates were incubated at room temperature for 2 hours with shaking. […] The plates were read with a luminometer, and the chemiluminescence values were entered into Athena (Rigel) for curve fitting, EC50 calculation, and database storage.

TNF-α in human PBMCs = experiment: R848-induced TNF-α in human PBMCs Assay; format: cell-based; conditions: PBMC
Procedure: R848-induced TNF-α in human PBMCs Assay
100 μL/well PBMCs (200K/well) were seeded in 96-well flat-bottom tissue culture plates. […] 100 μL/well 2× compound was added to the PBMC in the tissue culture plates. […] The cells were stimulated with R848 for an additional 4 hours at 37° C., 5% CO2. The supernatant (100 μl/well) was harvested to measure TNF-α by ELISA. […] The chemiluminescence values were entered into Athena (Rigel) for curve fitting, EC50 calculation, and database storage.
(§1) TNF-α ELISA was performed according to the vendor protocol, using 96 Well Flat-Bottom, MaxiSorp Black Immuno plates and 100 μL/well of supernatant. The plates were developed using 100 μL/well of Super Signal ELISA Pico Chemiluminescent Substrate. The plates were read with a luminometer, and the chemiluminescence values were entered into Athena (Rigel) for curve fitting, EC50 calculation, and database storage.

[1] = system: TNF-α in Human Primary Monocyte-Derived Dendritic Cells; experiment: Gardiquimod-Induced TNF-α in Human Primary Monocyte-Derived Dendritic Cells; format: cell-based; conditions: Dendritic cell, IFNγ-primed monocyte-derived dendritic cells, 4 μg/ml Gardiquimod, 6 hours, TNF-α ELISA, read-out: TNFα (DC, GARD) (IC50)
Procedure: Gardiquimod-Induced TNF-α in Human Primary Monocyte-Derived Dendritic Cells
After 2 hours, the media including floating cells was carefully removed and 12 ml of fresh RPMI media (10% FBS) containing GM-CSF (100 ng/ml) and IL-4 (20 ng/ml) were added to the adherent monocytes. The monocytes were allowed to differentiate for 7 days at 37° C., 5% CO2 for 7 days, supplementing with fresh GM-CSF and IL-4 after 3 days. The differentiated dendritic cells (DC) were harvested by centrifugation (1200 rpm/5 min). The DCs were primed at 37° C., 5% CO2 for 24 hours with 50 ng/ml IFN-γ (1000 U/ml) at 50K/well in 100 μl/well of fresh RPMI media (10% FBS) in a white clear bottom 96 well plate.
The primed DCs were pre-incubated with test compound for 1 hour at 37° C., 5% CO2 by adding 100 μl of RPMI media containing 2× concentrated test compound per well (0.5% final DMSO concentration).
DCs were stimulated with Gardiquimod (10 μl per well of 20× concentrated Gardiquimod solution in RPMI media to give a final concentration of 4 μg/ml) at 37° C., 5% CO2 for an additional 6 hours. The supernatant (100 μl/well) was harvested to measure TNF-α by ELISA. […] The chemiluminescence values were entered into Athena (Rigel) for curve fitting, EC50 calculation, and database storage.
as §1

[2] = THP-1, 18 h, read-out: IL23 (THP, LPS) (IC50, μM)
[3] = Homo sapiens, 4 h, read-out: TNFα (PBMC, R848) (IC50, μM)

Sequence of IRAK4 (Q9NWZ3 whole entry): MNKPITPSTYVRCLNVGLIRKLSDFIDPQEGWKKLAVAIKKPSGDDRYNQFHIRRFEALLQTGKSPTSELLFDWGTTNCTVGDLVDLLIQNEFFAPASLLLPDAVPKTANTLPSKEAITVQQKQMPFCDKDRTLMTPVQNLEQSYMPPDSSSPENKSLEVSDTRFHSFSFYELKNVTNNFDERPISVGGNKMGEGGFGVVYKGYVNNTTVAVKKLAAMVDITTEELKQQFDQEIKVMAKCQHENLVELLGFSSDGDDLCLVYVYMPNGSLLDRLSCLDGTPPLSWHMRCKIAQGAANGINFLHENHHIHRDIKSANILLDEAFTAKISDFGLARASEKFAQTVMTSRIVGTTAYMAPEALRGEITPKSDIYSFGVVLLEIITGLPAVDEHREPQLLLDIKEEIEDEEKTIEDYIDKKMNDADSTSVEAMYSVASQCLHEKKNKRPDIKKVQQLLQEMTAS

SMILES	IC50 (IRAK4)	IC50 (IL23p19 in THP-1 Cells; [2])	IC50 (TNF-α in human PBMCs; [3])	IC50 [1]	IC50 (IL23p19 in THP-1 Cells; IFNγ-primed THP-1 cells, 1 μg/mL LPS, 18 hours, IL-23p19 ELISA, read-out: IL23 (THP, LPS) (IC50))	IC50 (TNF-α in human PBMCs; human PBMCs, 65 ng/mL R848, 4 hours, TNF-α ELISA, read-out: TNFα (PBMC, R848) (IC50))
CC(C)Oc1cc2c(O[C@@H]3CCCN(C(=O)CC#N)C3)ncc(-c3cnn(C4CCOCC4)c3)c2cc1C(N)=O [Compound I-117, (R)-1-((1-(2-cyanoacetyl)piperidin-3-yl)oxy)-7-isopropoxy-4-(1-(tetrahydro-2H-pyran-4-yl)-1H-pyrazol-4-yl)isoquinoline-6-carboxamide]	25.3 nM	3.91 µM	7.24 µM	1030 nM	–	–
CC(C)Oc1cc2c(OC[C@@H]3CC(F)(F)C(=O)N3)ncc(-c3cnn(C4CCCC4)c3)c2cc1C(N)=O [Compound I-69, (S)-4-(1-cyclopentyl-1H-pyrazol-4-yl)-1-((4,4-difluoro-5-oxopyrrolidin-2-yl)methoxy)-7-isopropoxyisoquinoline-6-carboxamide]	5.1 nM	0.391 µM	0.241 µM	52.3 nM	–	–
CC(C)Oc1cc2c(O[C@@H]3CCCN(C(=O)CC#N)C3)ncc(C#CC3CCOCC3)c2cc1C(N)=O [Compound I-89, (R)-1-((1-(2-cyanoacetyl)piperidin-3-yl)oxy)-7-isopropoxy-4-((tetrahydro-2H-pyran-4-yl)ethynyl)isoquinoline-6-carboxamide]	15.2 nM	1.71 µM	0.556 µM	530 nM	–	–
CCO[C@H]1CC[C@@H](C#Cc2cnc(OC[C@H]3NC(=O)[C@@H](F)[C@H]3CC)c3cc(OC(C)C)c(C(N)=O)cc23)CC1 [Compound I-81, 4-(((1s,4R)-4-ethoxycyclohexyl)ethynyl)-1-(((2S,3S,4S)-3-ethyl-4-fluoro-5-oxopyrrolidin-2-yl)methoxy)-7-isopropoxyisoquinoline-6-carboxamide]	463 nM	0.0163 µM	–	–	–	–
CC(C)Oc1cc2c(O[C@@H]3CCCN(C(=O)CC#N)C3)ncc(-c3cnn(C4CCNCC4)c3)c2cc1C(N)=O [Compound I-122, (R)-1-((1-(2-cyanoacetyl)piperidin-3-yl)oxy)-7-isopropoxy-4-(1-(piperidin-4-yl)-1H-pyrazol-4-yl)isoquinoline-6-carboxamide]	24 nM	–	2.16 µM	1000 nM	–	–
CC(C)Oc1cc2c(O[C@@H]3CCCN(C(=O)OC(C)(C)C)C3)ncc(-c3cnn(C4CC4)c3)c2cc1C(N)=O [Compound I-107, tert-butyl (R)-3-((6-carbamoyl-4-(1-cyclopropyl-1H-pyrazol-4-yl)-7-isopropoxyisoquinolin-1-yl)oxy)piperidine-1-carboxylate]	–	–	–	–	103 µM	38.2 µM
CCO[C@H]1CC[C@H](C#Cc2cnc(OC[C@H]3NC(=O)[C@@H](F)[C@H]3CC)c3cc(OC(C)C)c(C(N)=O)cc23)CC1 [Compound I-80, 4-(((1r,4S)-4-ethoxycyclohexyl)ethynyl)-1-(((2S,3S,4S)-3-ethyl-4-fluoro-5-oxopyrrolidin-2-yl)methoxy)-7-isopropoxyisoquinoline-6-carboxamide]	390 nM	0.0105 µM	–	–	–	–
CC(C)Oc1cc2c(OC[C@@H]3CC(F)(F)C(=O)N3)ncc(C#CC3(O)CCN(C(=O)OC(C)(C)C)CC3)c2cc1C(N)=O [Compound I-52, tert-butyl (S)-4-((6-carbamoyl-1-((4,4-difluoro-5-oxopyrrolidin-2-yl)methoxy)-7-isopropoxyisoquinolin-4-yl)ethynyl)-4-hydroxypiperidine-1-carboxylate]	–	4.57 µM	0.338 µM	927 nM	–	–
CC(C)Oc1cc2c(OC[C@@H]3CCC(=O)N3)ncc(C#CC3(O)CCN(C)CC3)c2cc1C(N)=O [Compound I-14, (S)-4-((4-hydroxy-1-methylpiperidin-4-yl)ethynyl)-7-isopropoxy-1-((5-oxopyrrolidin-2-yl)methoxy)isoquinoline-6-carboxamide]	5.4 nM	–	3.93 µM	7870 nM	–	–
CC(C)Oc1cc2c(OC[C@@H]3CCC(=O)N3)ncc(C#CC3CCN(C(C)C)CC3)c2cc1C(N)=O [Compound I-19, (S)-7-isopropoxy-4-((1-isopropylpiperidin-4-yl)ethynyl)-1-((5-oxopyrrolidin-2-yl)methoxy)isoquinoline-6-carboxamide]	6.7 nM	0.124 µM	–	618 nM	–	–
CC(C)Oc1cc2c(OC[C@@H]3CC(F)(F)C(=O)N3)ncc(C#CC3CN(C)C3)c2cc1C(N)=O [Compound I-64, (S)-1-((4,4-difluoro-5-oxopyrrolidin-2-yl)methoxy)-7-isopropoxy-4-((1-methylazetidin-3-yl)ethynyl)isoquinoline-6-carboxamide]	3.6 nM	–	0.0215 µM	28.6 nM	–	–
CC(C)Oc1cc2c(O[C@@H]3CCCNC3)ncc(C#CC3(O)CCCC3)c2cc1C(N)=O [Compound I-85, (R)-4-((1-hydroxycyclopentyl)ethynyl)-7-isopropoxy-1-(piperidin-3-yloxy)isoquinoline-6-carboxamide]	–	1.96 µM	2.08 µM	4860 nM	–	–
CC[C@@H]1[C@H](F)C(=O)N[C@@H]1COc1ncc(C#CC2CCOCC2)c2cc(C(N)=O)c(OC(C)C)cc12 [Compound I-79, 1-(((2S,3S,4S)-3-ethyl-4-fluoro-5-oxopyrrolidin-2-yl)methoxy)-7-isopropoxy-4-((tetrahydro-2H-pyran-4-yl)ethynyl)isoquinoline-6-carboxamide]	18.1 nM	0.0072 µM	–	–	–	–
CC(C)Oc1cc2c(O[C@@H]3CCCN(C(=O)CC#N)C3)ncc(C#CC3(O)CCNCC3)c2cc1C(N)=O [Compound I-93, (R)-1-((1-(2-cyanoacetyl)piperidin-3-yl)oxy)-4-((4-hydroxypiperidin-4-yl)ethynyl)-7-isopropoxyisoquinoline-6-carboxamide]	23 nM	–	–	–	–	–
CC(C)Oc1cc2c(O[C@@H]3CCCN(C(=O)CC#N)C3)ncc(C#CC3(O)CCN(C)CC3)c2cc1C(N)=O [Compound I-94, (R)-1-((1-(2-cyanoacetyl)piperidin-3-yl)oxy)-4-((4-hydroxy-1-methylpiperidin-4-yl)ethynyl)-7-isopropoxyisoquinoline-6-carboxamide]	56.8 nM	18.8 µM	8.08 µM	–	–	–
